{
  "source": "patent US10154970B2",
  "about": "“Methods for immunomodulation of cancer and infectious disease therapy” (The Regents of the University of California, priority 2014, dated 2018)",
  "key": {"IFN-γ": {"test_system": "IFN-γ", "settings": "for antigen-specific immune response to the PV: short-course treatment", "experimental": "FIG. 5. Effect of TRIP on the immune response to an antigen-specific peptide vaccine (PV). Mice received 8 weekly 10-μg doses of PV and daily oral TRIP treatment for the final 16 days of the study. Lymphocytes were isolated 48 hours after the final dose of PV for the enzyme-linked immunosorbent spot (ELISpot) assay. Data are expressed as the number of spot forming cells (SFC)/500,000 lymphocytes following exposure to medium (no peptide), scrambled peptide, and BP25 peptide.\nA total of 43 wild type C57BL/6 mice were assigned to four different treatment groups: Control (n=10); and TRIP (i.e., ospemifene) 10, 50, and 100 mg/kg (n=11, all TRIP groups). All mice received a full course of tecemotide (L-BLP25) peptide vaccine (PV) immunotherapy (eight weekly 10 μg doses administered subcutaneously (s.c.) as described in Wurz G T. et al., J. Transl. Med., 11:64 (2013)). During the final 16 days of immunotherapy, mice received daily oral doses of TRIP according to treatment group assignment. TRIP oral dosing solutions were prepared by dissolving an appropriate amount of the drug in pure dimethyl sulfoxide (DMSO) and then adding peanut oil to the desired final concentration (final DMSO concentration was 2%). All doses were administered in a volume of 100 μl using 20-gauge stainless steel oral feeding needles. Control mice were given diluent only. Forty-eight hours following the final dose of PV, all mice were euthanized for the collection of blood for cytokine analysis by multiplex and spleens for assessing immune response by enzyme-linked immunosorbent spot (ELISpot) assay.\nData are expressed as the number of spot forming cells (SFC)/500,000 lymphocytes following exposure to medium (no peptide), scrambled peptide, and BP25 peptide."}, "regulatory T cell (Treg)": {"test_system": "regulatory T cell (Treg)", "settings": "chronic daily TRIP 50 mg/kg + two cycles of PV", "experimental": "A total of 55 mixed-sex hMUC1.Tg C57BL/6 mice, starting at approximately five weeks of age, were treated with urethane as described above. Approximately six weeks after the last dose of urethane, mice were randomized into four treatment groups of approximately equal average weight: Control (n=22); TRIP (i.e., ospemifene) 50 mg/kg (n=16); tecemotide (L-BLP25) peptide vaccine (PV) (n=6); and TRIP+PV (n=11). At this time (Week 21), mice assigned to the […] began treatment with the first of two cycles consisting of eight weekly 10 μg doses each, with approximately four weeks between cycles. Cycle 1 was administered during Weeks 21-28, and Cycle 2 from Weeks 32-39. The PV was prepared and administered as described above. Mice in the TRIP groups began daily oral treatment in Week 31, which continued through the end of the study (approximately eight weeks of dosing). TRIP was prepared and administered as described above. Mice not assigned to TRIP treatment received daily oral doses of diluent. At the conclusion of the study, 48 h after the final dose of PV and 24 h after the last dose of TRIP, all mice were euthanized for the collection of serum and spleens, which were processed as described above for multiplex serum cytokine, Treg, and CTL analyses."}, "[1]": {"test_system": "mouse breast cancer cells expressing the PV target antigen (BP25)", "assay": "Example 6: tumor volume of breast cancer allografts", "type": "in vivo, C57BL/6 wild type mice", "settings": "three daily oral doses TRIP 100 mg/kg before each of four weekly 100 μg PV; Days 22 and 25", "method": "Antitumor effects and serum IFN-γ immune response to peptide vaccine immunotherapy alone and in combination with TRIP immunomodulator. Each of four weekly 100-μg injections of peptide vaccine (PV) was preceded by three daily oral doses of TRIP (100 mg/kg). All mice were implanted with breast cancer allografts on Day 0, and serum was collected on Day 28 following four weeks of treatment. Tumor volumes were measured twice each week. For all treatment groups, n=8.\nA total of 32 female C57BL/6 wild type mice were assigned to four treatment groups (n=8): Control; TRIP (i.e., ospemifene) 100 mg/kg; tecemotide (L-BLP25) peptide vaccine (PV) (100 μg); and TRIP 100 mg/kg combined with 100 μg PV. On Day 0 of the study, all 32 mice were subcutaneously implanted with 1.0×10^6 mouse breast cancer cells expressing the PV target antigen (BP25). Two days later, mice began a three-day regimen of once daily 100 mg/kg TRIP administered orally. On Day 5, mice were administered their first weekly 100 μg dose of PV by subcutaneous injection. This treatment schedule was repeated for a total of four weeks. Tumor growth was assessed twice weekly. All mice were euthanized on Day 28 for the collection of serum and spleens to assess immune response to treatment. Immune response was assessed by performing IFN-γ ELISpot."}},
  "note": "Where two headings read alike, the source gives them in different places.",
  "data": [
    {"smiles": "OCCOc1ccc(/C(=C(/CCCl)c2ccccc2)c2ccccc2)cc1", "note": "[TRIP, Z-2-[4-(4-chloro-1,2-diphenyl-but-1-enyl)-phenoxy]ethanol]", "values": [
      {"measurement": "IFN-γ immune response by ELISpot, TRIP combined with PV vs PV alone", "setting": "IFN-γ; TRIP 10, 50, 100 mg/kg daily oral final 16 days + 8 weekly 10 μg PV s.c.", "value": "significantly increase"},
      {"measurement": "antigen-specific immune response to the PV", "setting": "IFN-γ; high (100 mg/kg) dose of TRIP", "value": "significantly increased"},
      {"measurement": "antigen-specific immune response to the PV", "setting": "IFN-γ; low (10 mg/kg) dose of TRIP", "value": "significantly increased"},
      {"measurement": "PV-induced immune response as assessed by Treg expression", "setting": "regulatory T cell (Treg)", "value": "did not significantly affect"},
      {"measurement": "tumor volume compared to the control group, PV in combination with TRIP", "setting": "[1]", "value": "reduced tumor volume"}
    ]}
  ]
}
